In patent US20110250629A1, “ALCOHOL PRODUCTION PROCESS” (Lanza Tech New Zealand Limited, priority 2009, published 2011):

How the values were obtained:
[1] = tested on: Clostridium autoethanogenum; conditions: fermentation broth
[2] = tested on: Clostridium thermocellum; conditions: cited from earlier work
[3] = tested on: Clostridium autoethanogenum DSM23693; conditions: 37° C., PETC medium
Procedure: The ethanol tolerance of Clostridium autoethanogenum DSM23693 was tested in serum bottles (FIG. 5). Ethanol was added in various concentrations to an active growing culture at 37° C. in PETC medium (Tab. 1) with 30 psi steel mill gas as substrate (approx 48% CO, 32% N2, 2% H2, and 18% CO2). Ethanol concentrations were confirmed by HPLC analysis using an Agilent 1100 Series HPLC system equipped with a RID operated at 35° C. (Refractive Index Detector) and an Alltech IOA-2000 Organic acid column (150×6.5 mm, particle size 5 μm) kept at 60° C. Slightly acidified water was used (0.005 M H2SO4) as mobile phase with a flow rate of 0.7 ml/min. To remove proteins and other cell residues, 400 μl samples were mixed with 100 μl of a 2% (w/v) 5-Sulfosalicylic acid and centrifuged at 14,000×g for 3 min to separate precipitated residues. 10 μl of the supernatant were then injected into the HPLC for analyses.

Compound: CCO [ethanol, Ethanol]
- concentration over which growth rate is partially inhibited and productivity decreases [1]: 20 to 40 g/L
- concentration over which metabolism and growth rate are substantially slowed [1]: 40 to 50 g/L
- ethanol concentration in which the micro-organism can still thrive ([2]; after strain selection): up to 8%
- ethanol concentration inhibitory to growth ([2]; unselected strain): above 1%
- microbial biomass reached over a 24 hour period ([3]; 20 g/L ethanol added, 30 psi steel mill gas, start approx 0.2 g/L biomass, no-added-ethanol culture reached approx 0.85 g/L): 0.45 g/L
- ethanol concentration at which growth was found to be inhibited ([3]; serum bottles): 10-20 g/l
